Patent US20080260774A1, “Alpha-galactosyl ceramide analogs and their use as immunotherapies” (priority 2007, published 2008)
Entries after “also recorded” stand apart in the source; their conditions may differ.

Key:
BALB/c mice [1] = experiment: Expansion/activation of mouse splenocyte subpopulations 72 h after injection; format: in vivo
naïve CD161^+/CD3^+ NKTs = experiment: Human NKT TCR activation (phosphoproteins), glycolipid presented by HeLa, HeLa-CD1d or iDCs, 10 μg/ml; format: cell-based; conditions: 10 μg/ml
[2] = system: human naïve NKTs (CD161^+CD3^+); experiment: Cytokine/chemokine secretion by human naïve CD161+CD3+ NKTs co-cultured with autologous immature CD14+ DCs; format: cell-based; conditions: normalized to DMSO control
[3] = format: in vivo, mouse; conditions: two weeks after the third vaccination
Experimental: BALB/c mice were injected IM with globo H-DT/α-GalCer or globo H-DT/α-GalCer analogs three times at two weeks interval. Sera was collected two weeks after the third vaccination and tested for IgG and IgM anti-globo H-specific antibody at 1:480 and 1:240 dilution, respectively, using a glycan microarray.

[4] = system: H5 of avian influenza viruses (pHA); format: in vivo, mouse
mouse spleen cells = conditions: in vitro stimulation; cited from earlier work
Klebsiella pneumoniae = experiment: Antibacterial efficacy in K. pneumoniae infected mice; format: in vivo, mouse; conditions: 100 μg/kg twice at 4-hour and 8-hour after infection
Experimental: K. pneumoniae is a Gram negative bacterium that causes liver abscess and is becoming a serious disease in Taiwan among diabetic patients. […] BALB/cByl female mice were administered a single dose of live K. pneumoniae by oral gavage. […] Twenty four hours after infection, both the liver and lungs were collected from each mouse, and homogenized. Bacterial counts were determined similarly as described above. BALB/c-Byl female mice (ten mice per group) were administered a single dose (10^6 CFU) of live-K. pneumoniae by oral gavage. Mice in the treatment groups were injected with testing α-GalCer analogs at 100 μg/kg twice at 4-hour and 8-hour after bacterial infection. Mice in the control group were injected with PBS at 4- and 8-hour. Twenty four hours after infection, all mice were sacrificed. Both livers and lungs were collected from each mouse, and homogenized. Bacterial counts were determined similarly as described above.

[5] = system: mycobacterium tuberculosis, Pseudomonas aeruginosa; conditions: in vivo; cited from earlier work
advanced cancers = conditions: cited from earlier work
[6] = system: syngeneic lung cancer (TC1) cells; experiment: Lung cancer model in mice (TC1, IV inoculation); format: in vivo, mouse; conditions: IV administration
tetanus toxoid (TT) = conditions: mouse, in vivo
[7] = system: syngeneic breast cancer (4T1); experiment: Breast cancer model in mice (4T1, SubQ inoculation); format: in vivo, mouse; conditions: mice bearing breast cancer
tumor metastasis = conditions: mice; cited from earlier work
C57BL/6 mice = experiment: Expansion of NKT subsets in spleens of C57BL/6 mice; format: in vivo; conditions: C57BL/6 Wt, 72 h post IV injection, 0.1 μg per mouse
Sphingomonas capsulata = experiment: Antibacterial efficacy in Sphingomonas capsulata infected mice; format: in vivo, mouse
Description: Sphingomonas capsulata is a common environmental bacterial strain that is found in many places such as the air and water. It can be easily identified on nutrient agar plates because of its yellow colony color. […] Since the antibacterial activities of glycolipid antigens are mediated through the activation of NKT cells by glycolipid bound-CD1-d molecules, evaluation of the antibacterial efficacies using the disease model of Sphingomonas capsulata infection will focus on the impact of the NKT mediated pathway that is activated by glycolipid bindings. Six to eight week old female C57BL/6 mice were injected IP with Sphingomonas capsulate cells. […] Twenty-four hours after bacterial infection, livers were removed from mice and homogenized. Colony formation units (CFU) of Sphingomonas capsulate in liver homogenates were determined by plating diluted samples on nutrient plates. Colonies were counted after incubation for 48 hours at 37° C. […] To confirm the antibacterial efficacies of these α-GalCer analogs, another study was conducted to repeat the study by treating infected mice with 50 μg/kg in the same disease model. […] Six to eight week old female C57BL/6 mice were injected IP with 5×10^8 Sphingomonas capsulate cells. Mice were grouped into treatment and control groups with 4-6 mice per group. Four hours after the infection, mice in the treatment group were injected IP with testing α-GalCer analogs at 50 or 100 μg/kg, and the control group mice were injected with same volumes of PBS. Twenty-four hours after bacterial infection, mice from all groups were sacrificed. Livers were removed from mice and homogenized in 0.9% NaCl, 0.02% Tween 80 using tissue homogenizers. Colony formation units (CFU) of Sphingomonas capsulate in liver homogenates were determined by plating diluted samples on nutrient plates. Colonies were counted after incubation for 48 hours at 37° C.

BALB/c mice [8] = experiment: Mouse serum cytokines/chemokines after IV, SubQ or IM injection; format: in vivo; conditions: IV route
[9] = system: FLU-A virus serotype H1N1 (WSN); experiment: Cytopathetic effect / virus titer in MDCK cells infected with H1N1 (WSN); format: cell-based; conditions: pretreated at 10 μg/ml for four hours; 10TCID50; 48 hours post-infection
Experimental: FIG. 60(A-B) show the cytopathetic effect (CPE) of Madin-Darby canine kidney (MDCK) cells in vitro. MDCK cells were pretreated with vehicle, α-GalCer or one of the α-GalCer analogs C13, C14 or C16 at 10 μg/ml for four hours, followed by infection with FLU-A virus serotype H1N1 (WSN) at 10TCID50.
BALB/c mice were treated via intranasal route with control, α-GalCer (C1) or the α-GalCer analogs C13, C14 or C16 at one hour prior to virus challenge with H1N1 (WSN). […] In general, certain α-GalCer analogs may exert direct anti-viral effects, or act indirectly via immune stimulation. […] MDCK cells were pretreated with vehicle, α-GalCer or one of the α-GalCer analogs C13, C14 or C16 at 10 μg/ml for four hours, followed by infection with FLU-A virus serotype H1N1 (WSN) at 10TCID50.

In the case of `CCCCCCCCCCCCCCCCCCCCCCCCCC(=O)N[C@@H](CO[C@H]1O[C@H](CO)[C@H](O)[C@H](O)[C@H]1O)[C@H](O)[C@H](O)CCCCCCCCCCCCCC` [C1, α-Galactosyl ceramide, reference compound], the B cell expansion (BALB/c mice [1]; FIGS. 26E, 28E and 30E) is reported as “more active than C1”, the “CD8^+ T cell expansion/activation” value (BALB/c mice [1]; FIGS. 26F, 28F and 30F) is reported as “more active than C1” and the B cell expansion/activation (BALB/c mice [1]; SubQ route) is reported as “significant activities”. The “CD4^+ T cells” value (BALB/c mice [1]; SubQ route) was “most effective; also recorded: more active over control”, the “intracellular phospho-CD3ε” value (naïve CD161^+/CD3^+ NKTs; presented by DCs) was 10.8 folds and the “intracellular phospho-CD3ε” value (naïve CD161^+/CD3^+ NKTs; presented by HeLa-CD1d cells) was 7.3 folds of control. For the same compound, the phospho-ERK1/2 (naïve CD161^+/CD3^+ NKTs; with DCs) was 30 folds, the phospho-ERK1/2 (naïve CD161^+/CD3^+ NKTs; with HeLa-CD1d cells) was 6.6 folds increase and the “IFN/IL-4 ratio (TH1/TH2 bias)” value [2] was “more TH2-biased”. The “anti-globo H IgM antibody” value ([3]; 1:240 dilution) was “not in C1 treated group”, the “anti-globo H IgG antibody” value ([3]; 1:480 dilution) was “elicited significant IgG antibody production” and the “adjuvant activities in enhancing the anti-HAc antibody titer” value ([4]; 0.2 μg pHAc) was “better adjuvant activities than the others in enhancing the antibody titer”. The anti-H5 responses ([4]; 5-45 μg H5 DNA vaccine, three weeks after first immunization) was “enhanced by α-GalCer at 5-30 μg H5 DNA, but reached a plateau at 45 μg”, the “adjuvant effect on anti-H5 titers” value ([4]; H5 DNA dose 0.2-5 μg, two weeks after second immunization) was “evident for all low dosages tested” and the “anti-HA-specific IgG antibody” value ([4]; three weeks after one dose immunization) was “enhanced”. The “NKT proliferation and cytokine production” value (mouse spleen cells) was “proliferation of NKTs and production of both IFN-[…] and IL-4”, the “bacterial loads in mouse lung and liver” value (Klebsiella pneumoniae) was “significantly reduce the bacterial loads in mouse lung and liver” and the antibacterial activities [5] was “amelioration of mycobacterium tuberculosis infections, clearance of lung infection by Pseudomonas aeruginosa”. For the same compound, the toxicity (advanced cancers; human, in vivo) was “without any toxicity”, the clinical anti-tumor outcome (advanced cancers; α-GalCer or α-GalCer-loaded iDCs, phase I) was “no durable tumor regression, stable disease was noted in several patients” and the “anti-cancer efficacy compared with C1” value [6] was “significantly greater anti-cancer efficacy than C1”. The “antibody production compared with Alum” value (tetanus toxoid (TT)) was “significantly greater antibody production than Alum”, the “antibody response relative to conventional vaccine” value (tetanus toxoid (TT)) was about 2 fold and the “level of antibody after delayed boost compared with TT+Alum” value (tetanus toxoid (TT)) was “twice as high as those given TT+Alum”. The “effect of route of administration (SubQ vs IV) on anti-tumor efficacy” value [7] was “more effective than IV delivery in prolonging the survival of mice bearing breast cancer; also recorded: statistically better efficacy with SubQ delivery over IV route”, the tumor metastasis (tumor metastasis) was “suppress tumor metastasis to liver, lung and lymph nodes” and the “total number of NKTs and its two subtypes NKT1 and NKT2” value (C57BL/6 mice) was “increase of total number of NKTs”. For the same compound, the “difference in the values of the CFU per gram liver among efficacious groups” value (Sphingomonas capsulata; 50 μg/kg) was “not statistically significant”, the “CFU numbers in liver” value (Sphingomonas capsulata; 100 μg/kg IP, 24 hour after bacterial infection) was “significantly lower than the control group” and the “IFN-γ/IL-4 ratio (TH1/TH2 bias)” value (BALB/c mice [8]; 2 hours, compared with C1) was “less TH2 responses than C1”. For the same compound, the “serum level of IFN-γ” value (BALB/c mice [8]; over 72 hours) was “highest level of IFN-γ when given IV” and the “entry/replication of H1N1 virus (virus titer)” value [9] was “slight inhibition of the entry/replication of H1N1 virus in vitro”.
